Test results taken from PMC8123651, “Flavones from Combretum quadrangulare Growing in Vietnam and Their Alpha-Glucosidase Inhibitory Activity” (Molecules, 2021).

Key:
[1] = test system: methicillin-resistant Staphylococcus aureus (MRSA); experiment: Antibacterial activity, agar well diffusion method; assay type: cell-based; details: 50 μg of each compound per well, 8-mm wells, read-out: Diameter of inhibition zone
Procedure: Methicillin-resistant Staphylococcus aureus (MRSA), extended spectrum beta-lactamase-producing Escherichia coli (ESBL-producing E. coli) and the agar well diffusion method were used to evaluate the antibacterial activity of the isolated compounds [29]. The strains were cultured in nutrient broth at 37 °C for 18 h and diluted with steriled 0.9% NaCl to obtain the 1.5 × 10^8 CFU/mL bacterial solution. Then, 100 μL of the bacterial solution was spread on Mueller–Hinton agar (MHA) plate on which 8-mm wells were created aseptically with tips. The isolated compounds were dissolved in dimethyl sulfoxide at the concentration of 1 mg/mL and 50 μL of each compound solution was applied in each well. The plates were incubated at 37 °C for 16–18 h and the diameters of the inhibtion zones were measured. Dimethyl sulfoxide and apramycin were used as controls in this experiment.

alpha-glucosidase [2] = biological target: T1, alpha-glucosidase (Saccharomyces cerevisiae, UniProt P53341); experiment: Inhibitory type assay on alpha-glucosidase (Lineweaver–Burk plots); assay type: biochemical; details: Vmax decreased while Km remained constant
T1 sequence (P53341 whole entry): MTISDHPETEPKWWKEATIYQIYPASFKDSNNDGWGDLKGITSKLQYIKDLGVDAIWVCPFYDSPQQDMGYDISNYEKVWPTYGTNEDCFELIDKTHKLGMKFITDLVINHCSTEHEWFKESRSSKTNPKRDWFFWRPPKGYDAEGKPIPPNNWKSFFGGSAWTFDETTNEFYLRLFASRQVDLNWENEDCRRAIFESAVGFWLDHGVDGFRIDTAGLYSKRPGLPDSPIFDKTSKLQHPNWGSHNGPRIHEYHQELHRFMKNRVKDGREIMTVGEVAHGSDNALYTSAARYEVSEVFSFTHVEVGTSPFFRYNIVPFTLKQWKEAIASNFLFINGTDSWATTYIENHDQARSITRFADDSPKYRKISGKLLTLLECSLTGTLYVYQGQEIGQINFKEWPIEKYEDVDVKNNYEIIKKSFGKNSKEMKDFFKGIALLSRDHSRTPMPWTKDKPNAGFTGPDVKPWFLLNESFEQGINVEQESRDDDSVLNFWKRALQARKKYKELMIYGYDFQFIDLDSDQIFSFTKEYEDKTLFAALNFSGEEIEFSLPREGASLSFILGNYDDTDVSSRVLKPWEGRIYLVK
Procedure: In order to examine the inhibition mechanism of compound 11, their activity was measured at the different concentration of pNPG.
Enzyme inhibition due to various concentrations of the 8 and 11 compounds were evaluated by monitoring the effects of different concentrations of the substrate. For Lineweaver–Burk double reciprocal plots 1/enzyme velocity (1/V) vs. 1/substrate concentration (1/[S]), the inhibition type was determined using various concentrations of pNPG (1 mM, 2 mM, and 4 mM) as a substrate in the presence of different concentrations of the test compounds (0; 4.96; 9.92 and 19.84 µM for 8 and 0; […]; 43.03 and 86.06 µM for 11). The experiments were carried out in 3 replicates. The mixtures were incubated at 37 °C and the optical density was measured at 405 nm every 1 min for 30 min with the Clariostar Labtech microplate reader (Ortenberg, Germany). Optimal concentrations of the tested compound were chosen based on the IC50 value. The inhibition constants were obtained graphically from secondary plots (Microsoft Excel 2010, Washington, WA, USA).

alpha-glucosidase [3] = biological target: T1, alpha-glucosidase; experiment: Alpha-glucosidase inhibition assay (pNPG substrate); assay type: biochemical; details: means ± standard errors of three independent experiments; read-out: Alpha-glucosidase inhibitory IC50
Procedure: The alpha-glucosidase (0.2 U/mL) and substrate (5.0 mM p-nitrophenyl-α-D-glucopyranoside) were dissolveed in 100 mM of pH 6.9 sodium phosphate buffer. The inhibitor (50 µL) was preincubated with alpha-glucosidase at 37 °C for 20 min, and then the substrate (40 µL) was added to the reaction mixture. The enzymatic reaction was carried out at 37 °C for 20 min and stopped by adding 0.2 M of Na2CO3 (130 μL). Enzymatic activity was quantified by measuring absorbance at 405 nm. All samples were analyzed in triplicate at five different concentrations around the IC50 values, and the mean values were retained. The inhibition percentage (%) was calculated by the following equation: Inhibition (%)=[1−(Asample/Acontrol)]×100. .

Molecule | zone of inhibition at 50 µg/disc [1] | Inhibition type (alpha-glucosidase [2]) | IC50 (alpha-glucosidase [3])
COc1cc(O)c2c(=O)c(O)c(-c3ccc(OC)c(O)c3)oc2c1 [Compound 5, ombuin] | 15 mm |  | 
COc1c(O)cc(-c2oc3c(Br)c(OC)c(Br)c(O)c3c(=O)c2OC)cc1Br [Compound 8, 6,8,5′-Tribromoayanin] |  | noncompetitive | 
COc1c(Br)c(O)c2c(=O)c(OC)c(-c3cc(Br)c(O)c(Br)c3)oc2c1Br [Compound 11, 6,8,3′,5′-Tetrabromokamatakenin] |  | noncompetitive | 
CN[C@@H]1[C@@H](O[C@H]2O[C@H](CO)[C@@H](N)[C@H](O)[C@H]2O)OC2C[C@@H](N)[C@@H](O[C@H]3[C@H](O)[C@@H](O)[C@H](N)C[C@@H]3N)OC2[C@@H]1O (stereo partly drawn) [apramycin, reference compound] | 24 mm |  | 
isoorientin [Compound 15] |  |  | > 300 µM
vitexin [Compound 16] |  |  | > 300 µM
